Measurements taken from PubChem BioAssay (NCI).
Where “and” joins values, the source holds several entries; their conditions need not be identical. Equal entries are not always repeated.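 48-hour exposure; five concentrations; linearly interpolated endpoints. GI50 = concentration required for 50% inhibition of growth. TGI marks complete inhibition of growth.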

Key:
Assay in all cases: inhibition of tumour cell growth, NCI panel, 48 h
[1] = test system: 786-0 renal
[2] = test system: BT-549 breast
[3] = test system: IGROV1 ovarian
[4] = test system: MALME-3M melanoma
[5] = test system: NCI-H460 lung
[6] = test system: NCI-H522 lung
[7] = test system: NCI/ADR-RES ovarian
[8] = test system: SF-268 CNS
[9] = test system: SN12C renal
[10] = test system: UO-31 renal

Structure (SMILES)	GI50 [1]	TGI [1]	GI50 [2]	TGI [2]	GI50 [3]	TGI [3]	GI50 [4]	TGI [4]	GI50 [5]	TGI [5]	GI50 [6]	TGI [6]	GI50 [7]	TGI [7]	GI50 [8]	TGI [8]	GI50 [9]	TGI [9]	GI50 [10]	TGI [10]
Nc1nc2c(nnn2C2OC(CO)C(O)C2O)c(=O)[nH]1 (stereo not drawn)	0.941 µM	> 100 µM	2.41 µM	> 26.3 µM	2.76 µM	> 100 µM	4.62 µM	> 100 µM	1.51 µM	> 40.6 µM	0.596 µM	6.74 µM	1.23 µM	> 100 µM	3.15 µM	> 100 µM	3.25 µM	> 100 µM	1.71 µM	> 100 µM
CCCC[n+]1c(/C=C\c2c(OC)cc(OC)cc2OC)ccc2ccccc21	2.84 µM	13 µM	0.738 µM	3.19 µM	1.09 µM	6.7 µM	0.362 µM	2.07 µM	0.574 µM	2.83 µM	0.678 µM	3.07 µM	15.9 µM	> 71.9 µM	2.03 µM	10.3 µM	0.728 µM	5.77 µM	2.22 µM	8.26 µM
CO[C@]12C=C/C(=C(/C(=O)OCc3cccnc3)C(=O)CCCCCCCC[C@@]3(OC)C=C/C(=C(/C(=O)OCc4cccnc4)C(=O)CCCCCCCC1)O3)O2	1.32 µM	4.71 µM	1.51 µM	4.29 µM	1.75 µM	14.7 µM	1.11 µM	3.7 µM	1.27 µM	3.16 µM	1.05 µM	2.85 µM	1.56 µM	> 50 µM	1.47 µM	6.53 µM	1.84 µM	34.2 µM	1.21 µM	4.34 µM
CC1SC2(CCC(c3ccccc3)CC2)N(NC(=O)c2[nH]c3ccc(F)cc3c2-c2ccccc2)C1=O (stereo not drawn)	2.92 µM	12.2 µM	5.45 µM	34.6 µM	3.89 µM	20 µM	16 µM	49.8 µM	4.28 µM	40.2 µM	7.21 µM	24.6 µM	3.58 µM	23.4 µM	21.2 µM	> 100 µM	3.56 µM	12.7 µM	6.48 µM	33.1 µM
O=C1CCCCC=C1C[N+](=O)[O-]	17.6 µM	39.6 µM	26 µM	61.4 µM	33 µM	> 100 µM	30.3 µM	53.5 µM	34.3 µM	> 100 µM	14.6 µM	37 µM	36.3 µM	> 100 µM	30.8 µM	> 100 µM	31.6 µM	> 100 µM	38.2 µM	> 100 µM
c1ccc(Nc2nc(-c3ccccn3)cs2)nc1	0.344 µM	> 38.2 µM	0.713 µM	> 26 µM	0.464 µM	5.8 µM	0.156 µM	5.16 µM	0.29 µM	2.61 µM	0.253 µM	15.1 µM	0.103 µM	2.89 µM	0.346 µM	> 45.5 µM	0.873 µM	> 100 µM	0.0737 µM	0.711 µM
COc1cc2nc(-c3ccc(Cl)cc3)cc(OCCCN3CCCC3)c2cc1OC	2.78 µM	12.1 µM	1.77 µM	7.37 µM	0.881 µM	11.8 µM	1.68 µM	4.52 µM	0.823 µM	11.2 µM	2.36 µM	8.89 µM	0.683 µM	11 µM	2.53 µM	15.5 µM	0.914 µM	13.7 µM	1.72 µM	6.63 µM
O=C(c1ccco1)c1c(C(F)(F)F)nc2ccc(C(F)(F)F)cc2[n+]1[O-]	27 µM	62 µM	24.1 µM	59.8 µM	35.6 µM	> 92.7 µM	20.8 µM	47.7 µM	> 63.2 µM	> 100 µM	62.1 µM	> 100 µM	44.2 µM	> 100 µM	33.3 µM	99.5 µM	43.4 µM	> 100 µM	38.7 µM	> 100 µM
Clc1cc2c(nn1)Nc1ccccc1S2	> 100 µM	> 100 µM	> 100 µM	> 100 µM	> 100 µM	> 100 µM	> 100 µM	> 100 µM	> 100 µM	> 100 µM	> 100 µM	> 100 µM	> 100 µM	> 100 µM	> 100 µM	> 100 µM	> 100 µM	> 100 µM	> 100 µM	> 100 µM
Cc1cccc2nc3cccc(C(=O)NCCNCCNCCNC(=O)c4cccc5nc6cccc(C)c6nc45)c3nc12	< 0.0333 µM	7.74 µM	1.73 µM	6.25 µM	< 0.01 µM	> 39.3 µM	< 0.0302 µM	2.21 µM	< 0.01 µM	0.19 µM	< 0.01 µM	0.159 µM	0.296 µM	> 100 µM	< 0.01 µM	1.7 µM	0.0489 µM	14.1 µM	0.0238 µM	–
CC(C)(CCN=C(N)Nc1ccccn1)c1ccc(C(F)(F)F)cc1	13.3 µM	28.2 µM	15.1 µM	31.2 µM	12 µM	26.2 µM	14.3 µM	29.6 µM	15.3 µM	31.2 µM	14.5 µM	30.8 µM	17.5 µM	32.9 µM	16.5 µM	35.6 µM	15.1 µM	29.8 µM	10.7 µM	22.7 µM
Cn1c2ccccc2c(=O)c2c(O)cc3c(c21)CC(C1(C)CO1)O3 (stereo not drawn)	–	5.06 µM	–	4.5 µM	–	26.9 µM	–	28.4 µM	–	13.6 µM	–	9.79 µM	–	3.2 µM	–	4.11 µM	–	3.77 µM	–	4.09 µM
CCOC(=O)c1ccc2c(c1)nc(/C=C/c1ccc(Cl)cc1)n2-c1cc(C(C)(C)C)[nH]n1	2.98 µM	9.29 µM	4.54 µM	25.6 µM	5.09 µM	33.8 µM	2.8 µM	18.5 µM	6.28 µM	> 100 µM	2.84 µM	10.6 µM	10.1 µM	> 100 µM	5.86 µM	> 100 µM	7.3 µM	81 µM	2.71 µM	25.3 µM
Cc1cc2nc3ccc(=[N+](C)C)cc-3sc2cc1N	1.82 µM and 0.76 µM	10.1 µM and 17.7 µM and 4.3 µM	2.75 µM and 2.09 µM	19.7 µM and 25.2 µM and 18.2 µM	1.53 µM and 1.81 µM	5.18 µM and 20.2 µM and 5.32 µM	0.384 µM and 0.223 µM	1.8 µM and 6.42 µM and 0.782 µM	0.457 µM and 1.56 µM	7.56 µM and 24.5 µM and 11.8 µM	0.274 µM and 1.57 µM	1.66 µM and 8.94 µM and 10.3 µM	0.272 µM and 0.265 µM	3.61 µM and 7.98 µM and 1.49 µM	0.351 µM and 0.956 µM	–	0.821 µM and 1.15 µM	3.7 µM and 10.6 µM and 2.52 µM	1.73 µM and 1.61 µM	9.11 µM and 25.1 µM and 10.8 µM
C=C1COC(O)(C2OCOC(C3CC(=O)NC(=O)C3)C2O)C1C (stereo not drawn)	0.00362 µM	0.0532 µM	0.0187 µM	0.0739 µM	0.00383 µM and 0.0166 µM	0.0442 µM and 0.0773 µM	0.00285 µM	0.0154 µM and 0.0364 µM	0.0107 µM	0.18 µM and 0.172 µM	0.00201 µM	0.00684 µM and 0.00593 µM and 0.0137 µM	–	0.163 µM	0.00577 µM	0.0423 µM and 0.033 µM	–	0.012 µM	0.00204 µM	0.0278 µM and 0.0215 µM
CCCCCc1cc[n+](CC(=O)c2ccc([N+](=O)[O-])cc2)cc1	20.1 µM	74.2 µM	4.15 µM	20.5 µM	10.1 µM	24.4 µM	2.15 µM	8 µM	3.09 µM	11.6 µM	1.8 µM	8.53 µM	18.5 µM	52.2 µM	19.4 µM	> 100 µM	9.63 µM	> 100 µM	4.61 µM	43.6 µM
CC(=O)c1ccc(Nc2nc(Nc3ccc(F)cc3)nc(Nc3ccc(F)cc3)n2)cc1	14.1 µM	32.5 µM	10.1 µM	31.5 µM	9.49 µM	28.2 µM	6.73 µM	42.1 µM	8.65 µM	> 100 µM	10.4 µM	41.3 µM	5.5 µM	54.1 µM	10.8 µM	46.6 µM	23.6 µM	> 100 µM	7.68 µM	24.3 µM
CN1CC[C@]2(c3cccc(O)c3)CC(=O)/C(=C/c3ccccc3)[C@H]1C2	3.21 µM	10.1 µM	3.64 µM	14.5 µM	3.38 µM	12.6 µM	–	9.51 µM	–	6.32 µM	–	7.76 µM	2.42 µM	7.35 µM	6.04 µM	18.2 µM	–	11.4 µM	2 µM	9.83 µM
CCCCCCCCCCCCCCCC(=O)N[C@H](/C=C/[C@H](O)CCCCCCCCCCCCC)CO	> 100 µM	> 100 µM	> 100 µM	> 100 µM	> 100 µM	> 100 µM	> 100 µM	> 100 µM	> 100 µM	> 100 µM	> 100 µM	> 100 µM	> 100 µM	> 100 µM	> 100 µM	> 100 µM	> 100 µM	> 100 µM	> 100 µM	> 100 µM
CCC(CCC(C)C1CCC2C3CC=C4CC(OC5OC(CO)C(O)C(O)C5O)CCC4(C)C3CCC12C)C(C)C (stereo not drawn)	–	> 100 µM	–	> 100 µM	–	> 100 µM	–	> 100 µM	–	> 100 µM	–	> 100 µM	–	> 100 µM	–	> 100 µM	–	> 100 µM	–	> 100 µM
O=C1C(=O)c2ccccc2C(O)=C1CCCc1ccc(C2CCCC2)cc1	4.02 µM	21.4 µM	10.5 µM	48.6 µM	3.72 µM	18.4 µM	6.55 µM	38 µM	3.11 µM	11.8 µM	5.01 µM	25.9 µM	5.89 µM	30.2 µM	5.1 µM	51.5 µM	6.78 µM	95 µM	3.85 µM	15.5 µM
CSc1ccc2c(c1)N(CCC1CCCCN1C)c1ccccc1S2 (stereo not drawn)	11.7 µM and 4.92 µM	25.7 µM and 19.4 µM	12.7 µM and 3.23 µM	27.7 µM and 10.4 µM	5.89 µM	20.1 µM	6.91 µM and 1.67 µM	23.8 µM and 3.67 µM	4.52 µM and 2.03 µM	17.9 µM and 4.28 µM	6.29 µM	21.8 µM	10.4 µM and 4.76 µM	24.1 µM and 18.5 µM	7.7 µM and 4.85 µM	21.6 µM and 17.7 µM	4.81 µM and 6.05 µM	18.8 µM and 19.3 µM	3.26 µM and 3.61 µM	14.5 µM and 15.4 µM
CCOc1ccc2c(C)cc(=O)oc2c1	–	> 100 µM	–	> 100 µM	–	> 100 µM	–	> 100 µM	–	> 100 µM	–	> 100 µM	–	> 100 µM	–	> 100 µM	–	> 100 µM	–	> 100 µM
COC(C(=O)C(O)C(C)O)C1Cc2cc3cc(OC4CC(OC5CC(O)C(O)C(C)O5)C(O)C(C)O4)c(C)c(O)c3c(O)c2C(=O)C1OC1CC(OC2CC(O)C(OC3CC(C)(O)C(O)C(C)O3)C(C)O2)C(O)C(C)O1 (stereo not drawn)	0.0112 µg/mL and 0.0152 µg/mL	112 µg/mL and 64.7 µg/mL	0.015 µg/mL	0.0739 µg/mL	0.0112 µg/mL and 0.00231 µg/mL	–	0.0112 µg/mL and 0.000642 µg/mL	–	0.0112 µg/mL and 0.000613 µg/mL	–	0.0112 µg/mL and 0.000596 µg/mL	–	3.87 µg/mL and 0.0809 µg/mL	–	0.0167 µg/mL and 0.00113 µg/mL	–	0.0112 µg/mL and 0.0011 µg/mL	–	0.0725 µg/mL and 0.00356 µg/mL	–
CCN(Cc1ccccc1Cl)c1ccc(CO)c(Cl)c1	12.8 µM	26.1 µM	15.8 µM	29.9 µM	< 0.0418 µM	0.138 µM	13.6 µM	28.1 µM	0.296 µM	11.1 µM	11.5 µM	25.4 µM	12.2 µM	26.5 µM	15.5 µM	30 µM	11.5 µM	24 µM	9.15 µM	24.9 µM
Clc1nc(Cl)c2c3c(sc2n1)CCCC3	5.17 µM	> 100 µM	3.63 µM	> 100 µM	3.85 µM	> 100 µM	> 100 µM	> 100 µM	> 100 µM	> 100 µM	1.64 µM	> 26 µM	5.29 µM	> 100 µM	4.37 µM	> 100 µM	3.26 µM	> 100 µM	–	> 100 µM
